Tested on: Puccinia recondita
Test: Curative activity against Puccinia recondita on wheat (leaf rust of wheat)
Type: in vivo, Puccinia recondita on wheat c.v. Frühgold
Conditions: 16 ppm, sprayed the day after infection, 7 days in greenhouse, untreated plants 80% infection
Procedure: The active ingredients, separately or together, were prepared as a 10% strength emulsion in a mixture of 70% by weight of cyclohexanone, 20% by weight of Nekanil® LN (Lutensol® AP6, wetting agent having emulsifying and dispersant action based on ethoxylated alkylphenols) and 10% by weight of Wettol® EM (nonionic emulsifier based on ethoxylated castor oil) and diluted with water to the desired concentration.
Leaves of potted wheat seedlings c.v. “Frühgold” were dusted with leaf rust spores (Puccinia recondite). The pots were then placed for 24 hours into a chamber with high atmospheric humidity (90 to 95%) at 20 to 25° C. During this time, the spores germinated, and the germinal tubes penetrated the leaf tissue. The next day, the infected plants were sprayed to runoff point with an aqueous spray liquor which had been prepared using a stock solution of 10% of active ingredient, 63% of cyclohexanone and 27% of emulsifier. After the spray coating had dried on, the test plants were cultivated for 7 days in a greenhouse at from 20 to 22° C. and a relative atmospheric humidity of 65 to 70%. The extent of rust development on the leaves was then determined.

Row | Compound | % infection (rust development on the leaves)
1 | CNC(=O)C(=NOC)c1ccccc1COc1ccc(-n2nc(C)cc2C)cc1Cl [I-11, N-methyl-2-{2-chloro-[4-(3,5-dimethyl)pyrazol-1-yl]phenoxymethylene}-phenylglyoxamide O-methyloxime] | no infection
2 | CON=C(C(=O)OC)c1ccccc1COc1ccc(-n2nc(C)cc2C)cc1Cl [I-12, methyl 2-{2-chloro-[4-(3,5-dimethyl)-pyrazol-1-yl]phenoxymethylene}phenylglyoxylate O-methyloxime] | no infection
